Reference: patent US20150344466A1 (SUMITOMO CHEMICAL COMPANY, LIMITED, priority 2013, published 2015)

Each compound was assayed on Culex pipiens pallens (assay: Knockdown spray test on adult Culex pipiens pallens (Test Example 4)). Settings: topical, 0.25 h, active ingredient 0.1% w/v, 0.5 ml sprayed, within 15 minutes, read-out: knockdown rate of the test insects within 15 minutes.
Format: in vivo
Experimental: Ten adult Culex pipiens pallens were released in a polyethylene cup (bottom diameter: 10.6 cm), and the cup was covered with a 16-mesh nylon gauze. The polyethylene cup was placed on the bottom of a test chamber (bottom: 46 cm×46 cm, height: 70 cm). From a height of 30 cm above the upper surface of the polyethylene cup, 0.5 ml of the test drug solution was sprayed using a spray gun (a spraying pressure of 0.4 kg/cm^2). Immediately after spraying, the cup was taken out from the test chamber, and after 2 minutes, 5 minutes and 15 minutes, the number of knocked-down insects was counted to obtain a knockdown rate. The knockdown rate was calculated by the following equation.
Knockdown Rate (%)=(Number of Knocked-down Insects/Number of Tested Insects)×100
`O=C(NCC1COCO1)c1cc(COCc2ccccc2)on1` (centres unmarked) [(35), N-[4-(1,3-dioxolyl)methyl]-5-benzyloxymethylisoxazole-3-carboxamide] was tested, and the pest or weed control at 0.1 % strength was ≥ 80%. For `O=C(NC1CSC1)c1cc(COCc2ccccc2)on1` [(40), N-(thietan-3-yl)-5-benzyloxymethylisoxazole-3-carboxamide], the pest or weed control at 0.1 % strength was ≥ 80%. In the case of `O=C(NCC1CCOC1)c1ncc(COc2ccccc2)s1` (centres unmarked) [(47), N-(tetrahydrofuran-3-ylmethyl)-5-phenoxymethythiazole-2-carboxamide], the pest or weed control at 0.1 % strength is reported as ≥ 80%. With `O=C(NCC1CCOC1)c1ncc(COCc2ccccc2)s1` (centres unmarked) [(48), N-(tetrahydrofuran-3-ylmethyl)-5-benzyloxymethythiazole-2-carboxamide] the pest or weed control at 0.1 % strength was ≥ 80%. With `O=C(NCC1CCOC1)c1cc(COCc2ccsc2)on1` (centres unmarked) [(107), N-(tetrahydrofuran-3-ylmethyl)-5-(thiophen-3-ylmethoxymethyl)isoxazole-3-carboxamide] the pest or weed control at 0.1 % strength was ≥ 80%. With `O=C(NCC1CCOCC1)c1cc(COCc2ccsc2)on1` [(108), N-(tetrahydropyran-4-ylmethyl)-5-(thiophen-3-ylmethoxymethyl)isoxazole-3-carboxamide] the pest or weed control at 0.1 % strength was ≥ 80%. With `O=C(NCC1CCOC1)c1cc(COCc2ccc(Oc3ccccc3)cc2)on1` (centres unmarked) [(117), N-(tetrahydrofuran-3-ylmethyl)-5-(4-phenoxybenzyloxymethyl) isoxazole-3-carboxamide] the pest or weed control at 0.1 % strength was ≥ 80%. In the case of `Cc1c(COCc2cc(C(=O)NCC3CCOC3)no2)cccc1-c1ccccc1` (centres unmarked) [(123), N-(tetrahydrofuran-3-ylmethyl)-5-(2-methyl-3-phenylbenzyloxymethyl)isoxazole-3-carboxamide], the pest or weed control at 0.1 % strength is reported as ≥ 80%. `CC(OCc1cc(C(=O)NCC2CCOC2)no1)c1ccccc1` (centres unmarked) [(125), N-(tetrahydrofuran-3-ylmethyl)-5-[(1-phenylethyl)oxymethyl]isoxazole-3-carboxamide] was tested, and the pest or weed control at 0.1 % strength was ≥ 80%. With `O=C(NCC1CCOC1)c1cc(COCCCCc2ccccc2)on1` (centres unmarked) [(135), N-(tetrahydrofuran-3-ylmethyl)-5-(4-phenylbutoxymethyl)isoxazole-3-carboxylic acid-3-carboxamide] the pest or weed control at 0.1 % strength was ≥ 80%. `O=C(NCC1CCOCC1)c1cc(COCCCCc2ccccc2)on1` [(136), N-(tetrahydropyran-4-ylmethyl)-5-(4-phenylbutoxymethyl)isoxazole-3-carboxamide] was tested, and the pest or weed control at 0.1 % strength was ≥ 80%. For `O=C(NCC1CCOC1)c1cc(COCCCCCc2ccccc2)on1` (centres unmarked) [(137), N-(tetrahydrofuran-3-ylmethyl)-5-(5-phenylpentyloxymethyl)isoxazole-3-carboxylic acid-3-carboxamide], the pest or weed control at 0.1 % strength was ≥ 80%. For `O=C(NCC1CCOCC1)c1cc(COCCCCCc2ccccc2)on1` [(138), N-(tetrahydropyran-4-ylmethyl)-5-(5-phenylpentyloymethyl)isoxazole-3-carboxamide], the pest or weed control at 0.1 % strength was ≥ 80%. With `O=C(NCC1CCOC1)c1cc(CCCOc2ccccc2)on1` (centres unmarked) [(145), N-(tetrahydrofuran-3-ylmethyl)-5-(3-phenoxypropyl)isoxazole-3-carboxamide] the pest or weed control at 0.1 % strength was ≥ 80%. In the case of `O=C(NCC1CCOC1)c1cc(CCCCCOc2ccccc2)on1` (centres unmarked) [(147), N1-(tetrahydrofuran-3-ylmethyl)-5-(5-phenoxypentyl)isoxazole-3-carboxamide], the pest or weed control at 0.1 % strength is reported as ≥ 80%. With `O=C(NCC1CCOC1)c1cc(CCCCCCOc2ccccc2)on1` (centres unmarked) [(148), N-(tetrahydrofuran-3-ylmethyl)-5-(6-phenoxyhexyl)isoxazole-3-carboxamide] the pest or weed control at 0.1 % strength was ≥ 80%. `O=C(NCC1CCOC1)c1cc(Cc2cc3ccccc3s2)on1` (centres unmarked) [(161), N-(tetrahydrofuran-3-ylmethyl)-5-(benzo[b]thiophen-2-ylmethy)isoxazole-3-carboxamide] was tested, and the pest or weed control at 0.1 % strength was ≥ 80%. For `O=C(NCC1CCOC1)c1cc(Cc2ccc(Oc3ccccc3)cc2)on1` (centres unmarked) [(162), N-(tetrahydrofuran-3-ylmethyl)-5-(4-phenoxybenzyl)isoxazole-3-carboxamide], the pest or weed control at 0.1 % strength was ≥ 80%. With `O=C(NCC1CCOC1)c1cc(Cc2cccc(Oc3ccccc3)c2)on1` (centres unmarked) [(163), N-(tetrahydrofuran-3-ylmethyl)-5-(3-phenoxybenzyl)isoxazole-3-carboxamide] the pest or weed control at 0.1 % strength was ≥ 80%. For `O=C(NCC1CCOCC1)c1cc(COc2cccc(Cl)c2)on1` [(179), N-(tetrahydropyran-4-ylmethyl)-5-(3-chlorophenoxymethyl)isoxazole-3-carboxamide], the pest or weed control at 0.1 % strength was ≥ 80%. `O=C(NCC1CCOCC1)c1cc(COc2ccc(F)cc2)on1` [(185)] was tested, and the pest or weed control at 0.1 % strength was ≥ 80%. In the case of `O=C(NCC1CCOCC1)c1cc(COc2ccc(SC(F)(F)F)cc2)on1` [(193), N-(tetrahydropyran-4-ylmethyl)-5-(4-trifluoromethylthiophenoxymethyl)isoxazole-3-carboxamide], the pest or weed control at 0.1 % strength is reported as ≥ 80%. For `O=C(NCC1CCOC1)c1cc(COc2cccc(SC(F)(F)F)c2)on1` (centres unmarked) [(202), N-(tetrahydrofuran-3-ylmethyl)-5-(3-trifluoromethylthiophenoxymethyl)isoxazole-3-carboxamide], the pest or weed control at 0.1 % strength was ≥ 80%. In the case of `O=C(NCC1CCOCC1)c1cc(COc2cccc(SC(F)(F)F)c2)on1` [(203), N-(tetrahydropyran-4-ylmethyl)-5-(3-trifluoromethylthiophenoxymethyl)isoxazole-3-carboxamide], the pest or weed control at 0.1 % strength is reported as ≥ 80%. In the case of `O=C(NCC1CCOC1)c1noc(COCc2ccc3ccccc3c2)c1CO` (centres unmarked) [(209), N-(tetrahydrofuran-3-ylmethyl)-4-hydroxymethyl-5-(2-naphthylmethoxymethyl)isoxazole-3-carboxamide], the pest or weed control at 0.1 % strength is reported as ≥ 80%. In the case of `COc1ccccc1COCc1cc(C(=O)NCC2CCOC2)no1` (centres unmarked) [(227), N-(tetrahydrofuran-3-ylmethyl)-5-(2-methoxybenzyloxymethyl) isoxazole-3-carboxamide], the pest or weed control at 0.1 % strength is reported as ≥ 80%. In the case of `O=C(NCC1COCO1)c1cc(CCCc2ccc3ccccc3c2)on1` (centres unmarked) [(229), N-(1,3-dioxolan-4-ylmethyl)-5-[3-(2-naphthyl)propyl]isoxazole-3-carboxamide], the pest or weed control at 0.1 % strength is reported as ≥ 80%. `O=C(NCC1CCOC1)c1cc(CCCc2ccc3c(c2)OC(F)(F)O3)on1` (centres unmarked) [(231), N-(tetrahydrofuran-3-ylmethyl)-5-[5-(2,2-difluoro-1,3-benzodioxolanyl)propyl]isoxazole-3-carboxamide] was tested, and the pest or weed control at 0.1 % strength was ≥ 80%. `O=C(NCC1COCCO1)c1cc(CCCc2ccc3c(c2)OC(F)(F)O3)on1` (centres unmarked) [(232), N-(1,4-dioxan-2-ylmethyl)-5-[3-(5-(2,2-difluoro-1,3-benzodioxolanyl))propyl]isoxazole-3-carboxamide] was tested, and the pest or weed control at 0.1 % strength was ≥ 80%. `O=C(NCC1COCCO1)c1cc(COCc2ccc3ccccc3c2)on1` (centres unmarked) [(233), N-(1,4-dioxan-2-ylmethyl)-5-(2-naphthylmethoxymethyl)isoxazole-3-carboxamide] was tested, and the pest or weed control at 0.1 % strength was ≥ 80%. In the case of `O=C(NCC1CCOC1)c1cc(COCc2ccc3c(c2)OC(F)(F)O3)on1` (centres unmarked) [(236), N-(tetrahydrofuran-3-ylmethyl)-5-[5-(2,2-difluoro-1,3-benzodioxolanyl)methoxymethyl]isoxazole-3-carboxamide], the pest or weed control at 0.1 % strength is reported as ≥ 80%. With `O=C(NCC1CCOCC1)c1cc(COCc2ccc3c(c2)OC(F)(F)O3)on1` [(237), N-(tetrahydropyran-4-ylmethyl)-5-[5-(2,2-difluoro-1,3-benzodioxolanyl)methoxymethyl]isoxazole-3-carboxamide] the pest or weed control at 0.1 % strength was ≥ 80%. For `CC1(CNC(=O)c2cc(COCc3ccc4c(c3)OC(F)(F)O4)on2)COC1` [(238), N-(3-methyloxetan-3-ylmethyl)-5-[5-(2,2-difluoro-1,3-benzodioxolanyl)methoxymethyl]isoxazole-3-carboxamide], the pest or weed control at 0.1 % strength was ≥ 80%. `O=C(NCC1CCOC1)c1cc(COCc2ccc(-c3ccccc3)s2)on1` (centres unmarked) [(241), N-(tetrahydrofuran-3-ylmethyl)-5-(5-phenyl-2-thienylmethoxymethyl)isoxazole-3-carboxamide] was tested, and the pest or weed control at 0.1 % strength was ≥ 80%. With `O=C(NCC1CCOC1)c1cc(CCCc2ccccc2F)on1` (centres unmarked) [(245), N-(tetrahydrofuran-3-ylmethyl)-5-[3-(2-fluorophenyl)propyl]isoxazole-3-carboxamide] the pest or weed control at 0.1 % strength was ≥ 80%. With `COc1ccc2cc(CCCc3cc(C(=O)NCC4CCOC4)no3)ccc2c1` (centres unmarked) [(247), N-(tetrahydrofuran-3-ylmethyl)-5-[3-(6-methoxy-2-naphthyl)propyl]isoxazole-3-carboxamide] the pest or weed control at 0.1 % strength was ≥ 80%. For `O=C(NCC1CCOC1)c1cc(CCCBr)on1` (centres unmarked) [(248), N-(tetrahydrofuran-3-ylmethyl)-5-(3-bromopropyl)isoxazole-3-carboxamide], the pest or weed control at 0.1 % strength was ≥ 80%. For `C#Cc1c(C(=O)NCC2CCOC2)noc1COCc1ccccc1F` (centres unmarked) [(249), N-(tetrahydrofuran-3-ylmethyl)-5-(2-fluorobenzyloxymethyl)-4-ethynylisoxazole-3-carboxamide], the pest or weed control at 0.1 % strength was ≥ 80%. For `C#Cc1c(C(=O)NCC2CCOC2)noc1COCc1ccc2ccccc2c1` (centres unmarked) [(250), N-(tetrahydrofuran-3-ylmethyl)-5-(2-naphthylmethoxymethyl)-4-ethynylisoxazole-3-carboxamide], the pest or weed control at 0.1 % strength was ≥ 80%. `O=C(NCC1CCOC1)c1cc(CCCc2cccc(F)c2)on1` (centres unmarked) [(251), N-(tetrahydrofuran-3-ylmethyl)-5-[3-(3-fluorophenyl)propyl]isoxazole-3-carboxamide] was tested, and the pest or weed control at 0.1 % strength was ≥ 80%. `O=C(NCC1CCOC1)c1cc(CSCc2ccccc2)on1` (centres unmarked) [(254), N-(tetrahydrofuran-3-ylmethyl)-5-benzylthiomethylisoxazole-3-carboxamide] was tested, and the pest or weed control at 0.1 % strength was ≥ 80%.
